Assay results: patent publication US20250360109A1, “COMPOSITIONS AND METHODS FOR TREATING DEPRESSION IN FEMALES” (priority 2022, published 2025)

Assays:
[1] = test system: adult subjects with major depressive disorder (MDD); assay: Phase 2 placebo-controlled study in MDD, Montgomery-Asberg Depression Rating Scale (MADRS) total score; assay type: in vivo, human
Experimental: (§1) A Phase 2, multicenter, double-blind, randomized, placebo-controlled study of the safety and efficacy of SP-624 in the treatment of adult subjects with major depressive disorder (MDD) as defined by the Diagnostic and Statistical Manual of Mental Disorders, Fifth Edition (DSM-5) was carried out. Following the successful completion of a Screening Phase, subjects were randomized to one of two treatment groups in a 1:1 ratio and received Compound 1 (SP-624) or placebo over a treatment period of four weeks (Treatment Group #1: SP-624 20 mg/day; Treatment Group #2: Placebo).
(§2) Prior to initiating the 4-week treatment period, subjects completed a Screening/Baseline period of up to 28 days, during which time all screening assessments were performed, and any current depression medications discontinued. All screening assessments were completed before discontinuing any current depression medications. Subjects returned for a Baseline Visit to complete efficacy and safety assessments. During the treatment period, subjects returned to the investigative site to complete efficacy and safety assessments at the end of Weeks 1, 2, 3, and 4. After the final dose of study drug, subjects completed a follow-up period of two weeks and returned at the end of Weeks 5 and 6. Subjects may be treated with anti-depressant medications according to physician recommendations after completion of the Week 5 Visit.
(§3) Each dose of Compound 1 was supplied as two capsules, each containing 10 mg of active pharmaceutical ingredient (API). Matching placebo capsules identical in shape and color to the active capsules were used.
The primary efficacy endpoint was Change from Baseline to Week 4 in Montgomery-Asberg Depression Rating Scale (MADRS) total score.
(§4) Secondary efficacy endpoints included: • Change from Baseline to Weeks 1, 2, and 3 in MADRS total score, • Change from Baseline to Weeks 1, 2, 3, and 4 in Clinical Global Impression-Severity (CGI-S) total score, • Change from Baseline to Week 5 and change from Week 4 to Week 5 in MADRS total score and CGI-S total score, • Change from Baseline to Week 2 and Week 4 in the 17-item Hamilton Depression Rating Scale (HAM D-17) total score, • Change from Baseline to Week 2 and Week 4 in the Sheehan Disability Scale (SDS), • Change from Baseline to Week 2 and Week 4 in the Quick Inventory of Depressive Symptomology-Self Report (QIDS-SR), and • Change from Baseline to Week 2 and Week 4 in the Quality of Life Enjoyment and Satisfaction Questionnaire-Short Form (Q-LES-Q-SF).

[2] = test system: adult subjects with major depressive disorder (MDD); assay: Phase 2 placebo-controlled study in MDD, Quick Inventory of Depressive Symptomology-Self Report (QIDS-SR); assay type: in vivo, human; conditions: mITT; for Change from Baseline, QIDS Total at Week 2, LSM Difference (95% CI) / Change from Baseline, QIDS Total at Week 4, LSM Difference (95% CI): 20 mg/day vs Placebo; for Change from Baseline, QIDS Total at Week 2, Mean (SD) / Change from Baseline, QIDS Total at Week 2, Median / Change from Baseline, QIDS Total at Week 4, Mean (SD) / Change from Baseline, QIDS Total at Week 4, Median / QIDS Total at Week 2, Mean (SD) / QIDS Total at Week 2, Median / QIDS Total at Week 4, Mean (SD) / QIDS Total at Week 4, Median: 20 mg/day
Experimental: as §1, §2, §3, §4

[3] = Male, 20 mg/day vs Placebo, mITT, MMRM

COC1=CC(=O)C[C@@H](C)[C@]12Oc1c(Cl)c(-c3nnc(C)o3)cc(OC)c1C2=O [SP-624, (2S,6′R)-7-Chloro-2′,4-dimethoxy-6′-methyl-6-(5-methyl-1,3,4-oxadiazol-2-yl)-3H-spiro[1-benzofuran-2,1′-cyclohex [2]ene]-3,4′-dione]
Change from Baseline, MADRS Total at Week 4, Median ([1]; Female, 20 mg/day, mITT): −13 | MADRS Total at Week 1, Mean (SD) ([1]; Female, 20 mg/day, mITT): 26.7 (8.10) | MADRS Total at Week 1, Median ([1]; Female, 20 mg/day, mITT): 27 | MADRS Total at Week 2, Mean (SD) ([1]; Female, 20 mg/day, mITT): 23.1 (8.76) | MADRS Total at Week 2, Median ([1]; Female, 20 mg/day, mITT): 25 | MADRS Total at Week 3, Mean (SD) ([1]; Female, 20 mg/day, mITT): 20.8 (10.11) | MADRS Total at Week 3, Median ([1]; Female, 20 mg/day, mITT): 21 | MADRS Total at Week 4, Mean (SD) ([1]; Female, 20 mg/day, mITT): 19.8 (10.75) | MADRS Total at Week 4, Median ([1]; Female, 20 mg/day, mITT): 21 | Change from Baseline, MADRS Total at Week 1, LSM Difference (95% CI) [1, 3]: 0.7 (−2.7, 4.1) | Change from Baseline, MADRS Total at Week 2, LSM Difference (95% CI) [1, 3]: −0.7 (−4.1, 2.8) | Change from Baseline, MADRS Total at Week 3, LSM Difference (95% CI) [1, 3]: 2.2 (−1.3, 5.8) | Change from Baseline, MADRS Total at Week 4, LSM Difference (95% CI) [1, 3]: 2.7 (−0.8, 6.3) | Change from Baseline, MADRS Total at Week 1, Mean (SD) ([1]; Male, 20 mg/day, mITT): −6.6 (7.04) | Change from Baseline, MADRS Total at Week 1, Median ([1]; Male, 20 mg/day, mITT): −5 | Change from Baseline, MADRS Total at Week 2, Mean (SD) ([1]; Male, 20 mg/day, mITT): −9.8 (8.94) | Change from Baseline, MADRS Total at Week 2, Median ([1]; Male, 20 mg/day, mITT): −9 | Change from Baseline, MADRS Total at Week 3, Mean (SD) ([1]; Male, 20 mg/day, mITT): −10.6 (9.28) | Change from Baseline, MADRS Total at Week 3, Median ([1]; Male, 20 mg/day, mITT): −9 | Change from Baseline, MADRS Total at Week 4, Mean (SD) ([1]; Male, 20 mg/day, mITT): −11.4 (9.44) | Change from Baseline, MADRS Total at Week 4, Median ([1]; Male, 20 mg/day, mITT): −10 | MADRS Total at Week 1, Mean (SD) ([1]; Male, 20 mg/day, mITT): 25.5 (7.31) | MADRS Total at Week 1, Median ([1]; Male, 20 mg/day, mITT): 26 | MADRS Total at Week 2, Mean (SD) ([1]; Male, 20 mg/day, mITT): 22.6 (9.35) | MADRS Total at Week 2, Median ([1]; Male, 20 mg/day, mITT): 24 | MADRS Total at Week 3, Mean (SD) ([1]; Male, 20 mg/day, mITT): 21.4 (9.60) | MADRS Total at Week 3, Median ([1]; Male, 20 mg/day, mITT): 22 | MADRS Total at Week 4, Mean (SD) ([1]; Male, 20 mg/day, mITT): 20.8 (9.61) | MADRS Total at Week 4, Median ([1]; Male, 20 mg/day, mITT): 21 | lowering the MADRS score by an average of ([1]; females, therapeutically effective): 3.9 points | effect on MADRS score ([1]; males): no effect | Change from Baseline, QIDS Total at Week 2, LSM Difference (95% CI) ([2]; Female): −1.1 (−2.4, 0.3) | Change from Baseline, QIDS Total at Week 4, LSM Difference (95% CI) ([2]; Female): −2.0 (−3.3, −0.6) | Change from Baseline, QIDS Total at Week 2, Mean (SD) ([2]; Female): −3.9 (4.37) | Change from Baseline, QIDS Total at Week 2, Median ([2]; Female): −3 | Change from Baseline, QIDS Total at Week 4, Mean (SD) ([2]; Female): −5.7 (4.76) | Change from Baseline, QIDS Total at Week 4, Median ([2]; Female): −5 | QIDS Total at Week 2, Mean (SD) ([2]; Female): 11.7 (4.87) | QIDS Total at Week 2, Median ([2]; Female): 12 | QIDS Total at Week 4, Mean (SD) ([2]; Female): 10.2 (4.69) | QIDS Total at Week 4, Median ([2]; Female): 10 | Change from Baseline, QIDS Total at Week 2, LSM Difference (95% CI) ([2]; Male): 1.2 (−0.9, 3.2) | Change from Baseline, QIDS Total at Week 4, LSM Difference (95% CI) ([2]; Male): 1.1 (−0.8, 3.0) | Change from Baseline, QIDS Total at Week 2, Mean (SD) ([2]; Male): −2.1 (5.50) | Change from Baseline, QIDS Total at Week 2, Median ([2]; Male): −2 | Change from Baseline, QIDS Total at Week 4, Mean (SD) ([2]; Male): −3.3 (4.46) | Change from Baseline, QIDS Total at Week 4, Median ([2]; Male): −4 | QIDS Total at Week 2, Mean (SD) ([2]; Male): 11.7 (5.27) | QIDS Total at Week 2, Median ([2]; Male): 12 | QIDS Total at Week 4, Mean (SD) ([2]; Male): 10.4 (4.55) | QIDS Total at Week 4, Median ([2]; Male): 11
